# Test results: patent publication US12679878B2, “CRF2 receptor agonists and their use in therapy” (SANOFI, priority 2020, dated 2026)
# Starred links: 1 amine or outer side, 2 acyl side, 3 side chain; linkers in the order of their positions; H or OH if unused. Residues, ends and D or L forms follow the SMILES beside them. Groups on a side chain read outwards from the residue. *: point of attachment. C20 diacid = O=C(O)CCCCCCCCCCCCCCCCCCC(=O)*; C18 diacid = O=C(O)CCCCCCCCCCCCCCCCC(=O)*; γGlu = O=C(O)[C@H](CCC(=O)[*:2])N[*:1]; AEEA = NCCOCCOCC(=O)O
# Target: T1, human CRF2α receptor (Homo sapiens, UniProt Q13324)
# T1 construct: expressed in transfected cells; host or cells: TeloHEAC
# T1 sequence (Q13324 1-411): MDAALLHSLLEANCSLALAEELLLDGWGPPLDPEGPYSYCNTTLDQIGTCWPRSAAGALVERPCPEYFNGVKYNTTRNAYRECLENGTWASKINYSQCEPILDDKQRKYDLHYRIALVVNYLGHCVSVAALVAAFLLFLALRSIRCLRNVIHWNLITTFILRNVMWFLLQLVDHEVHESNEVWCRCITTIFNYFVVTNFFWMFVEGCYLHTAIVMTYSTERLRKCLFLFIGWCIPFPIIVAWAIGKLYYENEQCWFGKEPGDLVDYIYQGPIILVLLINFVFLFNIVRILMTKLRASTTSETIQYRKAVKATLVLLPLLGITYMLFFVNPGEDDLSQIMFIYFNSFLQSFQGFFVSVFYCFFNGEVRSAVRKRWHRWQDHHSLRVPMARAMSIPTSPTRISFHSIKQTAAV
# Experiment: cAMP agonism at human CRF2 α receptor in TeloHEAC cells (Example 7)
# Format: cell-based
# Details: cAMP HTRF, TeloHEAC cells stably expressing human CRF2 α, 0% HSA; read-out: EC50 [nM], 0% HSA
# Method in brief: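 Thawed frozen stably transfected cells in HBSS/20 mM HEPES (0% or 0.1% HSA) plus 2 mM IBMX were exposed to compound at 2000 cells/well for 30 min at room temperature. Intracellular cAMP was read by HTRF (665/620 nm ratio) after 1 h lysis; EC50 was derived with 1000 nM urocortin 2 set as 100%.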
row,Compound,EC50 [nM]
1,CC[C@H](C)[C@H](NC(=O)[C@H](CCC(N)=O)NC(=O)[C@H](CCCCNC(=O)COCCOCCNC(=O)COCCOCCNC(=O)CC[C@H](NC(=O)CCCCCCCCCCCCCCCCC(=O)O)C(=O)O)NC(=O)[C@@H](NC(=O)[C@H](CCCCN)NC(=O)[C@@H](NC(=O)[C@@H]1CCCN1C(=O)[C@@H](NC(=O)[C@H](CC(=O)O)NC(=O)[C@H](CC(C)C)NC(=O)[C@H](CO)NC(=O)[C@H](CC(C)C)NC(=O)[C@@H](NC(=O)[C@@H](N)Cc1ccccc1)[C@@H](C)O)C(C)C)[C@@H](C)O)[C@@H](C)CC)C(=O)N[C@@H](CC(C)C)C(=O)N[C@@H](CC(C)C)C(=O)N[C@@H](CCCCN)C(=O)N[C@@H](CCC(N)=O)C(=O)N[C@@H](CCC(N)=O)C(=O)N[C@@H](CCCCN)C(=O)N[C@@H](CCC(N)=O)C(=O)N[C@@H](CCCCN)C(=O)N[C@@H](CCCCN)C(=O)N[C@@H](CCC(=O)O)C(=O)N[C@@H](CCCNC(=N)N)C(=O)N[C@@H](CCC(N)=O)C(=O)N[C@@H](CCCCN)C(=O)N[C@@H](C)C(=O)N[C@@H](CCC(=O)O)C(=O)N[C@H](C(=O)N[C@@H](CC(N)=O)C(=O)N[C@H](C(=O)N[C@@H](CCC(N)=O)C(=O)N[C@@H](CC(C)C)C(=O)N[C@@H](CC(C)C)C(=O)N[C@@H](CCC(=O)O)C(=O)N[C@@H](CCCNC(=N)N)C(=O)N[C@H](C(N)=O)C(C)C)C(C)C)[C@@H](C)O [compound 55] (H-FTLSLDVPTKIK([AEEA-AEEA-γGlu-C18 diacid])QILLKQQKQKKERQKAETNVQLLERV-NH2; N-terminus assumed),48.5
2,CC[C@H](C)[C@H](NC(=O)[C@H](CCC(N)=O)NC(=O)[C@H](CCCCNC(=O)COCCOCCNC(=O)COCCOCCNC(=O)CC[C@H](NC(=O)CCCCCCCCCCCCCCCCC(=O)O)C(=O)O)NC(=O)[C@H](CC(C)C)NC(=O)CNC(=O)[C@@H](NC(=O)[C@@H]1CCCN1C(=O)[C@@H](NC(=O)[C@H](CC(=O)O)NC(=O)[C@H](CC(C)C)NC(=O)[C@H](CO)NC(=O)[C@H](CC(C)C)NC(=O)[C@@H](NC(=O)[C@@H](N)Cc1ccccc1)[C@@H](C)O)C(C)C)[C@@H](C)CC)C(=O)N[C@@H](CC(C)C)C(=O)N[C@@H](CC(C)C)C(=O)N[C@@H](CCCCN)C(=O)N[C@@H](CCC(N)=O)C(=O)N[C@@H](CCC(N)=O)C(=O)N[C@@H](CCCCN)C(=O)N[C@@H](CCC(N)=O)C(=O)N[C@@H](CCCCN)C(=O)N[C@@H](CCCCN)C(=O)N[C@@H](CCC(=O)O)C(=O)N[C@@H](CCCNC(=N)N)C(=O)N[C@@H](CCC(N)=O)C(=O)N[C@@H](CCC(N)=O)C(=O)N[C@@H](C)C(=O)N[C@@H](CCC(=O)O)C(=O)N[C@H](C(=O)N[C@@H](CC(N)=O)C(=O)N[C@H](C(=O)N[C@@H](CCC(N)=O)C(=O)N[C@@H](CC(C)C)C(=O)N[C@@H](CC(C)C)C(=O)N[C@@H](CCC(=O)O)C(=O)N[C@@H](CCCNC(=N)N)C(=O)N[C@H](C(N)=O)C(C)C)C(C)C)[C@@H](C)O [compound 56] (H-FTLSLDVPIGLK([AEEA-AEEA-γGlu-C18 diacid])QILLKQQKQKKERQQAETNVQLLERV-NH2),22.9
3,CC[C@H](C)[C@H](NC(=O)[C@H](CCC(N)=O)NC(=O)[C@H](CCCCNC(=O)COCCOCCNC(=O)COCCOCCNC(=O)CC[C@H](NC(=O)CCCCCCCCCCCCCCCCCCC(=O)O)C(=O)O)NC(=O)[C@@H](NC(=O)[C@H](CCCCN)NC(=O)[C@@H](NC(=O)[C@@H]1CCCN1C(=O)[C@@H](NC(=O)[C@H](CC(=O)O)NC(=O)[C@H](CC(C)C)NC(=O)[C@H](CO)NC(=O)[C@H](CC(C)C)NC(=O)[C@@H](NC(=O)[C@@H](N)Cc1ccccc1)[C@@H](C)O)C(C)C)[C@@H](C)O)[C@@H](C)CC)C(=O)N[C@@H](CC(C)C)C(=O)N[C@@H](CC(C)C)C(=O)N[C@@H](CCCCN)C(=O)N[C@@H](CCC(N)=O)C(=O)N[C@@H](CCC(N)=O)C(=O)N[C@@H](CCCCN)C(=O)N[C@@H](CCC(N)=O)C(=O)N[C@@H](CCCCN)C(=O)N[C@@H](CCCCN)C(=O)N[C@@H](CCC(=O)O)C(=O)N[C@@H](CCCNC(=N)N)C(=O)N[C@@H](CCC(N)=O)C(=O)N[C@@H](CCCCN)C(=O)N[C@@H](C)C(=O)N[C@@H](CCC(=O)O)C(=O)N[C@H](C(=O)N[C@@H](CC(N)=O)C(=O)N[C@H](C(=O)N[C@@H](CCC(N)=O)C(=O)N[C@@H](CC(C)C)C(=O)N[C@@H](CC(C)C)C(=O)N[C@@H](CCC(=O)O)C(=O)N[C@@H](CCCNC(=N)N)C(=O)N[C@H](C(N)=O)C(C)C)C(C)C)[C@@H](C)O [compound 64] (H-FTLSLDVPTKIK([AEEA-AEEA-γGlu-C20 diacid])QILLKQQKQKKERQKAETNVQLLERV-NH2),13.2
4,CC[C@H](C)[C@H](NC(=O)[C@H](CCC(N)=O)NC(=O)[C@H](CCCCNC(=O)COCCOCCNC(=O)COCCOCCNC(=O)CC[C@H](NC(=O)CCCCCCCCCCCCCCCCCCC(=O)O)C(=O)O)NC(=O)[C@H](CC(C)C)NC(=O)CNC(=O)[C@@H](NC(=O)[C@@H]1CCCN1C(=O)[C@@H](NC(=O)[C@H](CC(=O)O)NC(=O)[C@H](CC(C)C)NC(=O)[C@H](CO)NC(=O)[C@H](CC(C)C)NC(=O)[C@@H](NC(=O)[C@@H](N)Cc1ccccc1)[C@@H](C)O)C(C)C)[C@@H](C)CC)C(=O)N[C@@H](CC(C)C)C(=O)N[C@@H](CC(C)C)C(=O)N[C@@H](CCCCN)C(=O)N[C@@H](CCC(N)=O)C(=O)N[C@@H](CCC(N)=O)C(=O)N[C@@H](CCCCN)C(=O)N[C@@H](CCC(N)=O)C(=O)N[C@@H](CCCCN)C(=O)N[C@@H](CCCCN)C(=O)N[C@@H](CCC(=O)O)C(=O)N[C@@H](CCCNC(=N)N)C(=O)N[C@@H](CCC(N)=O)C(=O)N[C@@H](CCC(N)=O)C(=O)N[C@@H](C)C(=O)N[C@@H](CCC(=O)O)C(=O)N[C@H](C(=O)N[C@@H](CC(N)=O)C(=O)N[C@H](C(=O)N[C@@H](CCC(N)=O)C(=O)N[C@@H](CC(C)C)C(=O)N[C@@H](CC(C)C)C(=O)N[C@@H](CCC(=O)O)C(=O)N[C@@H](CCCNC(=N)N)C(=O)N[C@H](C(N)=O)C(C)C)C(C)C)[C@@H](C)O [compound 65] (H-FTLSLDVPIGLK([AEEA-AEEA-γGlu-C20 diacid])QILLKQQKQKKERQQAETNVQLLERV-NH2),9.31

# Continued, values first:
row,EC50 [nM],Compound
1,38.8,CC[C@H](C)[C@H](NC(=O)[C@H](CCC(N)=O)NC(=O)[C@H](CCCCNC(=O)COCCOCCNC(=O)COCCOCCNC(=O)CC[C@H](NC(=O)CCCCCCCCCCCCCCCCC(=O)O)C(=O)O)NC(=O)[C@H](CC(C)C)NC(=O)CNC(=O)[C@@H](NC(=O)[C@@H]1CCCN1C(=O)[C@@H](NC(=O)[C@H](CC(=O)O)NC(=O)[C@H](CC(C)C)NC(=O)[C@H](CO)NC(=O)[C@H](CC(C)C)NC(=O)[C@@H](NC(=O)[C@@H](N)Cc1ccccc1)[C@@H](C)O)C(C)C)[C@@H](C)CC)C(=O)N[C@@H](CC(C)C)C(=O)N[C@@H](CC(C)C)C(=O)N[C@@H](CCCCN)C(=O)N[C@@H](CCC(N)=O)C(=O)N[C@@H](CCC(N)=O)C(=O)N[C@@H](CCCCN)C(=O)N[C@@H](CCC(N)=O)C(=O)N[C@@H](CCCCN)C(=O)N[C@@H](CCCCN)C(=O)N[C@@H](CCC(=O)O)C(=O)N[C@@H](CCCNC(=N)N)C(=O)N[C@@H](CCC(N)=O)C(=O)N[C@@H](CCCCN)C(=O)N[C@@H](C)C(=O)N[C@@H](CCC(=O)O)C(=O)N[C@H](C(=O)N[C@@H](CC(N)=O)C(=O)N[C@H](C(=O)N[C@@H](CCC(N)=O)C(=O)N[C@@H](CC(C)C)C(=O)N[C@@H](CC(C)C)C(=O)N[C@@H](CCC(=O)O)C(=O)N[C@@H](CCCNC(=N)N)C(=O)N[C@H](C(N)=O)C(C)C)C(C)C)[C@@H](C)O [compound 57] (H-FTLSLDVPIGLK([AEEA-AEEA-γGlu-C18 diacid])QILLKQQKQKKERQKAETNVQLLERV-NH2; N-terminus assumed)
2,25.4,CC[C@H](C)[C@H](NC(=O)[C@H](CCC(N)=O)NC(=O)[C@H](CCCCNC(=O)COCCOCCNC(=O)COCCOCCNC(=O)CC[C@H](NC(=O)CCCCCCCCCCCCCCCCCCC(=O)O)C(=O)O)NC(=O)[C@H](CC(C)C)NC(=O)CNC(=O)[C@@H](NC(=O)[C@@H]1CCCN1C(=O)[C@@H](NC(=O)[C@H](CC(=O)O)NC(=O)[C@H](CC(C)C)NC(=O)[C@H](CO)NC(=O)[C@H](CC(C)C)NC(=O)[C@@H](NC(=O)[C@@H](N)Cc1ccccc1)[C@@H](C)O)C(C)C)[C@@H](C)CC)C(=O)N[C@@H](CC(C)C)C(=O)N[C@@H](CC(C)C)C(=O)N[C@@H](CCCCN)C(=O)N[C@@H](CCC(N)=O)C(=O)N[C@@H](CCC(N)=O)C(=O)N[C@@H](CCCCN)C(=O)N[C@@H](CCC(N)=O)C(=O)N[C@@H](CCCCN)C(=O)N[C@@H](CCCCN)C(=O)N[C@@H](CCC(=O)O)C(=O)N[C@@H](CCCNC(=N)N)C(=O)N[C@@H](CCC(N)=O)C(=O)N[C@@H](CCCCN)C(=O)N[C@@H](C)C(=O)N[C@@H](CCC(=O)O)C(=O)N[C@H](C(=O)N[C@@H](CC(N)=O)C(=O)N[C@H](C(=O)N[C@@H](CCC(N)=O)C(=O)N[C@@H](CC(C)C)C(=O)N[C@@H](CC(C)C)C(=O)N[C@@H](CCC(=O)O)C(=O)N[C@@H](CCCNC(=N)N)C(=O)N[C@H](C(N)=O)C(C)C)C(C)C)[C@@H](C)O [compound 66] (H-FTLSLDVPIGLK([AEEA-AEEA-γGlu-C20 diacid])QILLKQQKQKKERQKAETNVQLLERV-NH2; N-terminus assumed)
